Values after ≈ are worked out from the molar mass of the structure shown.
Columns and labels:
Thamnocephalus platyurus = details: ref Kim et al., 2009; cited from earlier work
[1] = set-up: method as in Drugbank; details: 20 °C; ref Drugbank; cited from earlier work
[2] = Internal pharmaceutical residue concentration in exposed G. pulex (SPE, LC-MS/MS); details: C1 dose, 24 h
Protocol: Quantification of pharmaceutical concentrations in G. pulex at the 24 h exposure interval was performed. Separate exposures were set up in triplicate in beakers containing 200 mL of exposure solution (AFW spiked with the respective C1 pharmaceutical dose) and 20 organisms. At 24 h, animals were immediately rinsed with ultra-pure water and then frozen at − 20 °C for 24 h. […] Prior to extraction, frozen G. pulex samples were lyophilised at − 50 °C under vacuum for 48 h and milled in an agate mortar to a fine powder. For each analysis, 20 mg of a lyophilised composite sample were transferred to 2 mL polypropylene tubes (Eppendorf®, Hamburg, Germany), for solid-liquid extraction (SLE). […]
Briefly, 50 mg of lyophilised G. pulex were extracted in 5 mL of acetonitrile and pre-concentrated on Oasis HLB SPE cartridges (6 mL, 200 mg sorbent). […] Organic acids, nucleosides, nucleotides, sugars and AAs were measured using LC–HRMS. […]
Here, pharmaceutical residue quantification in exposed G. pulex was performed by a 3-point matrix-matched calibration curve. […] L-ornithine hydrochloride, inosine, thymidine, taurine, 1.7-dimethylxanthine and (−)-riboflavin were quantified using either ^13C,^15N-proline or ^13C,^15N-tyrosine as the internal standard. The remaining 15 compounds were quantified using external calibration and the target compound itself was used as external standard. […]

Gammarus pulex = experiment: in vivo; details: G. pulex
Protocol: (§1) From these toxicity profiles the NOAEL and the LOAEL were determined. Exposure experiments were performed in Pyrex® beakers, each containing 200 mL of AFW at 15 °C and ten adult animals (> 5 mg wet weight, ww). Live/dead animals were counted after 24 h by gently prodding and observing movement of appendages. The pharmaceutical concentrations tested were in the range of 0.01 to 250 mg L^− 1. […] Concentrations where 100, 50 and 0% of the animals died were repeated in duplicate or triplicate.

in vivo = details: in vivo
Protocol: as §1

In the case of Oc1cc(Cl)ccc1Oc1ccc(Cl)cc1Cl [Triclosan], the “24 h- LC50 T. platyurus” value (Thamnocephalus platyurus) is given as 0.47 µg/mL, the Water solubility [1] is given as 12000 (20 ºC) mg L^-1 and the “internal concentration in G. pulex (detection)” value [2] is given as “not quantifiable”. For the same compound, the LC10 (Gammarus pulex; 24 h) was 0.20 µg/mL (≈ 0.691 µM), the “LOAEL (C2)” value (Gammarus pulex; 24 h acute toxicity profile) was 0.3 mg L^− 1 and the “NOAEL (C1)” value (Gammarus pulex; 24 h acute toxicity profile) was 0.1 mg L^− 1. For the same compound, the LC50 at 24 h (in vivo) was 0.57 µg/mL (≈ 1.97 µM).

From article PMC4912218, “Targeted metabolomics of Gammarus pulex following controlled exposures to selected pharmaceuticals in water” (The Science of the Total Environment, 2016)
